Measured values published in patent publication US10875860B2, “Azaindenoisoquinoline compounds and uses thereof” (Purdue Research Foundation, priority 2016, dated 2020).
Like-named read-outs stand apart in the source and are kept apart here.

Experiments:
Top1 = target: T1, Top1 (Homo sapiens, UniProt P11387); assay: Top1-mediated DNA cleavage assay; assay type: biochemical; design: Top1 inhibitory activity level / Top1 inhibitory activity score: key to the marks not given beside the values; details: for Enzyme Inhibitory Activity Top1: DNA cleavage relative to 1 μM MJ-III-65 (19) and 1 μM camptothecin (18); for Top1 inhibitory activity level: series 1
T1 sequence (P11387 1-765): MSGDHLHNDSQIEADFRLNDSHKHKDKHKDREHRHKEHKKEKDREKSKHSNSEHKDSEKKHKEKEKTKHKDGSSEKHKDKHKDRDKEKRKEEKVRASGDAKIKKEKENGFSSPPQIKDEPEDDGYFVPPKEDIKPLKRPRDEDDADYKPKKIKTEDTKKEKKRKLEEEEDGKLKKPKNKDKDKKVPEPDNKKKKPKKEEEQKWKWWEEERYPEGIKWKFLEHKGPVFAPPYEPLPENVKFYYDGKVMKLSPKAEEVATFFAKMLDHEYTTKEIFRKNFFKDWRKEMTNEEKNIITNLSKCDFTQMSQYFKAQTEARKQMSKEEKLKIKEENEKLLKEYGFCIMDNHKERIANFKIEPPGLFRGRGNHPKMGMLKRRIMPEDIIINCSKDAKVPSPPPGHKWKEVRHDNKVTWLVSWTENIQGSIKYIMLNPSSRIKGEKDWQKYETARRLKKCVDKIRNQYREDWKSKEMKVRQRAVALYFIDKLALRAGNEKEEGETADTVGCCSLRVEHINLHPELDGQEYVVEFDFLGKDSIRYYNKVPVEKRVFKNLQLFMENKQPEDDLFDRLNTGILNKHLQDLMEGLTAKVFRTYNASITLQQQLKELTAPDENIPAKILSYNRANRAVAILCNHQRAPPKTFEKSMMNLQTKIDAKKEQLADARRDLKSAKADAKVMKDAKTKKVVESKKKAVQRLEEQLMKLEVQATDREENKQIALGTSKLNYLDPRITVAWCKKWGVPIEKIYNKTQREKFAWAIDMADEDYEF

UACC-62 = assay: NCI-60 cytotoxicity, UACC-62; details: Homo sapiens, UACC-62, read-out: Cytotoxicity (GI50) Melanoma UACC-62
MCF-7 = assay: NCI-60 cytotoxicity, MCF-7; details: Homo sapiens, MCF7, read-out: Cytotoxicity (GI50) Breast MCF-7
SN12C = assay: NCI-60 cytotoxicity, SN12C; details: Homo sapiens, read-out: Cytotoxicity (GI50) Renal SN12C
OVCAR-3 = assay: NCI-60 cytotoxicity, OVCAR-3; details: Homo sapiens, OVCAR-3, read-out: Cytotoxicity (GI50) Ovarian Ovcar-3
Tdp1 = Tdp1 (Homo sapiens, UniProt Q9NUW8); assay: Recombinant Tdp1 assay; assay type: biochemical
recombinant human TDP2 = target: T2, recombinant human TDP2 (Homo sapiens, UniProt O95551); assay: Recombinant Tdp2 assay; assay type: biochemical
T2 sequence (O95551 1-362): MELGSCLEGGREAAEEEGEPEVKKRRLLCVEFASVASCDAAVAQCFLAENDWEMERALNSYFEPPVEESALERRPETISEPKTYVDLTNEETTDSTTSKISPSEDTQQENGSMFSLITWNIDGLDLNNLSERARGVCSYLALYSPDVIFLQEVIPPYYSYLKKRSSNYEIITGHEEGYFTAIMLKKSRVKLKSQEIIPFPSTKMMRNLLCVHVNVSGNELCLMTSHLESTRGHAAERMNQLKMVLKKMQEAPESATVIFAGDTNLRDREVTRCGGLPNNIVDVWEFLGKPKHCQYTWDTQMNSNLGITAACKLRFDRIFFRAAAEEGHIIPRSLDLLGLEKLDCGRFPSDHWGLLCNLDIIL
Protocol: TDP2 reactions were carried out as described previously with the following modifications. […] Reactions were terminated and treated similarly to whole-cell extract and recombinant Tdp1 reactions (see previous paragraph).

[1] = system: NCI-60 panel of human cancer cell lines; assay: NCI-60 screen, mean graph midpoint over all cell lines; details: Homo sapiens, read-out: Cytotoxicity (GI50) MGM
HOP-62 = assay: NCI-60 cytotoxicity, HOP-62; details: Homo sapiens, HOP-62, read-out: Cytotoxicity (GI50) Lung HOP-62
SF-539 = assay: NCI-60 cytotoxicity, SF-539; details: Homo sapiens, SF-539, read-out: Cytotoxicity (GI50) CNS SF-539
DU-145 = assay: NCI-60 cytotoxicity, DU-145; assay type: cell-based; details: Homo sapiens, single determinations, Table 2, read-out: Cytotoxicity (GI50) Prostate DU-145
HCT-116 = assay: NCI-60 cytotoxicity, HCT-116; assay type: cell-based; details: Homo sapiens, single determinations, Table 2, read-out: Cytotoxicity (GI50) Colon HCT-116
[2] = semiquantitative scale, in duplicate, Table 1, read-out: Enzyme Inhibitory Activity Tdp1
[3] = semiquantitative scale, in duplicate, Table 1, read-out: Enzyme Inhibitory Activity Tdp2
[4] = determined in duplicate, Table 2, read-out: Enzyme Inhibitory Activity Tdp1 (IC50)
[5] = read-out: Enzyme Inhibitory Activity Tdp2 (IC50)

Tdp1, sequence (Q9NUW8 whole entry): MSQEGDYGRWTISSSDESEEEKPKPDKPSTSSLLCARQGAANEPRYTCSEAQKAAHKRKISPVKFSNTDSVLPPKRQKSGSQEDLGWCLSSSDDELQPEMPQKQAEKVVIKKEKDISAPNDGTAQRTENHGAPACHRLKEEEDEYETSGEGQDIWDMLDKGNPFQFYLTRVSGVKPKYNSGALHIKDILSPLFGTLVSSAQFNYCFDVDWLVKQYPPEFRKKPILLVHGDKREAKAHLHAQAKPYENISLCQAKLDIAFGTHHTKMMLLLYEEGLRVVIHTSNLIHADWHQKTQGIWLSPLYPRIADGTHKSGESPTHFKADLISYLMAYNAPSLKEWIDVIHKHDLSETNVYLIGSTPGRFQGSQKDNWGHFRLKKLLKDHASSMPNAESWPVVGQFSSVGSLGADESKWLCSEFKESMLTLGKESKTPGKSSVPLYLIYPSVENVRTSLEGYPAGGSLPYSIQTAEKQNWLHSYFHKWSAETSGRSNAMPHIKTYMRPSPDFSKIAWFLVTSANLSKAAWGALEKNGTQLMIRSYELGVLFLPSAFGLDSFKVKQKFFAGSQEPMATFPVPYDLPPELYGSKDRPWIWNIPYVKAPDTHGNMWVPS

Row | Structure (SMILES) | Enzyme Inhibitory Activity Top1 (Top1; Table 1) | Top1 inhibitory activity level (Top1) | GI50 (UACC-62) [nM] | GI50 (MCF-7) [nM] | GI50 (SN12C) [nM] | melting point [°C] | GI50 (OVCAR-3) [nM] | IC50 (Tdp1; [2]) [nM] | IC50 (recombinant human TDP2; [3]) [nM] | GI50 [1] [nM] | GI50 (HOP-62) [nM] | GI50 (SF-539) [nM] | GI50 (DU-145) [nM] | Enzyme Inhibitory Activity Top1 (Top1; Table 2) | IC50 (Tdp1; [4]) [nM] | IC50 (recombinant human TDP2; [5]) [nM] | GI50 (HCT-116) [nM] | IC50 (recombinant human TDP2; determined in duplicate, Table 2, read-out: Enzyme Inhibitory Activity Tdp2 (IC50)) [nM]
1 | COc1cnc2c(c1)C(=O)c1c-2n(CCCNCCN2CCOCC2)c(=O)c2cc([N+](=O)[O-])ccc12 [Compound 13, 7-Aza-5,6-dihydro-9-methoxy-6-[3-((2-morpholinoethyl)amino)propyl]-3-nitro-5,11-dioxo-11H-indeno[1,2-c]isoquinoline] | +++ | +++ | 44 | 32 | 80 | 214 to 216 | 315 | 12000 to 37000 | 37000 to 111000 | 177 | 150 | 311 | – | – | – | – | – | –
2 | COc1cnc2c(c1)C(=O)c1c-2n(CCCNC(C)C)c(=O)c2cc([N+](=O)[O-])ccc12 [Compound 14, 7-Aza-5,6-dihydro-6-[3-(isopropylamino)propyl]-9-methoxy-3-nitro-5,11-dioxo-11H-indeno[1,2-c]isoquinoline] | ++++ | ++++ | 19 | 12 | 39 | 278 to 280 | 82 | 12000 to 37000 | 37000 to 111000 | 58 | 85 | 51 | – | – | – | – | – | –
3 | CCNCCCn1c2c(c3ccc([N+](=O)[O-])cc3c1=O)C(=O)c1cc(OC)cnc1-2 [Compound 15, 7-Aza-6-[3-(ethylamino)propyl]-5,6-dihydro-9-methoxy-3-nitro-5,11-dioxo-11H-indeno[1,2-c]isoquinoline] | ++++ | ++++ | 27 | 19 | 53 | 266 to 268 | 62 | 1000 to 12000 | 37000 to 111000 | 79 | 107 | 70 | – | – | – | – | – | –
4 | COc1cnc2c(c1)C(=O)c1c-2n(CCCNC2=NCCS2)c(=O)c2cc(Cl)ccc12 [Compound 16c, 3-Chloro-6-(3-((4,5-dihydrothiazol-2-yl)amino)propyl)-9-methoxy-5H-pyrido[3′,2′:4,5]cyclopenta[1,2-c]isoquinoline-5,11(6H)-dione] | – | – | 95 | 36 | – | 295 to 298 | 1300 | – | – | 390 | 42 | 470 | 92 | ++ | 11900 ± 3900 | 32900 ± 5700 | 350 | –
5 | CNCCCn1c2c(c3ccc(Cl)cc3c1=O)C(=O)c1cc(OC)cnc1-2 [Compound 16g, 3-Chloro-9-methoxy-6-(3-(methylamino)propyl)-5H-pyrido[3′,2′:4,5]cyclopenta[1,2-c]isoquinoline-5,11(6H)-dione] | – | – | 574 | 46 | 1180 | 274 to 275 | 1410 | – | – | 600 | 220 | 730 | 331 | – | 16000 ± 3200 | – | 550 | > 111000
6 | COc1cnc2c(c1)C(=O)c1c-2n(CCCNC2=NCCS2)c(=O)c2cc(F)ccc12 [Compound 17c, 6-(3-((4,5-Dihydrothiazol-2-yl)amino)propyl)-3-fluoro-9-methoxy-5H-pyrido[3′,2′:4,5]-cyclopenta-[1,2-c]isoquinoline-5,11(6H)-dione] | – | – | 344 | 33 | 238 | 226 to 250 | 567 | – | – | 269 | 59 | 305 | 144 | ++ | > 111000 | 61600 ± 14000 | 82 | –
